# Assay results from patent US20200171056A1, “SULFONYLUREA COMPOUNDS IN THE TREATMENT OF DISEASE ASSOCIATED WITH UV-INDUCED DAMAGE” (CeMM - Forschungszentrum für Molekulare Medizin GmbH, priority 2017, published 2020).
# Test system: WT and ΔXPA cells
# Test: Cell cycle analysis (propidium iodide, FACS)
# Type: cell-based, human
# Conditions: 0.5 mM for 6 hours, WT vs ΔXPA (FIG. 8A)
# Description: A. WT and ΔXPA cells were either treated with DMSO or 0.5 mM acetohexamide for 6 hours. Cell cycle profiles were determined using propidium iodide (P1) staining followed by FACS analysis. B-D. Survival of WT HAP1 cells treated with either DMSO or 0.5 mM acetohexamide for 6 hours, followed by exposure to the indicated DNA damaging agents (MMC: mitomycin C; HU: hydroxyl urea; MMS: methyl methanesulfonate). Survival was assessed after 3 days using CellTitre-Glo. E. Cell viability of WT cells treated either with 0.5 mM acetohexamide or 30 μM N-acetylcysteine (NAC) for 6 hours, followed by 30 J/M^2 UV exposure.
# Cells were treated with either DMSO or acetohexamide as indicated. Cell cycle stages were identified using propidium iodide (PI) staining. Briefly, cells were harvested, resuspended in PBS and fixed overnight with cold 70% ethanol. After centrifugation, ethanol was removed and cells were resuspended in PBS containing 1 μg/mL RNase A and […]. Finally, cells were analyzed on a FACScalibur flow cytometer. Following cell acquisition, analysis was performed using FlowJo software (Tree Star).
smiles,measurement,value
CC(=O)c1ccc(S(=O)(=O)NC(=O)NC2CCCCC2)cc1 [acetohexamide],cell cycle profiles,no difference between wildtype or ΔXPA cells upon acetohexamide treatment
